These results are taken from patent publication US9145373B2, “Certain kynurenine-3-monooxygenase inhibitors, pharmaceutical compositions, and methods of use thereof” (CHDI FOUNDATION, INC., priority 2008, dated 2015).

Structures are written as SMILES.

The target of this test is T1, KMO mouse enzyme (Mus musculus, UniProt Q91WN4).
T1 construct: KMO enzyme prepared at Evotec from mouse liver (4-6 weeks old) via mitochondria isolation; from tissue; host or cells: mouse liver (4-6 weeks old), mitochondria isolation, prepared at Evotec
As to the kind of experiment: KMO mouse enzyme assay: L-Kynurenine hydroxylation to 3-Hydroxy-Kynurenine monitored by LC/MS (MRM). To be noted: compound at 10 μM, KMO enzyme from mouse liver mitochondria; for inhibition at 10 µM: read-out: INH.Mouse @ 10 μM. In kind it is biochemical. The essentials:
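Enzyme is a mitochondrial preparation from 4-6-week-old mouse liver, with L-kynurenine as substrate in potassium phosphate buffer, pH 7.4. 3-Hydroxy-kynurenine formed is quantified by LC/MS using multiple reaction monitoring. Compound stocks were 10 mM in DMSO.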

T1 sequence (Q91WN4 whole entry): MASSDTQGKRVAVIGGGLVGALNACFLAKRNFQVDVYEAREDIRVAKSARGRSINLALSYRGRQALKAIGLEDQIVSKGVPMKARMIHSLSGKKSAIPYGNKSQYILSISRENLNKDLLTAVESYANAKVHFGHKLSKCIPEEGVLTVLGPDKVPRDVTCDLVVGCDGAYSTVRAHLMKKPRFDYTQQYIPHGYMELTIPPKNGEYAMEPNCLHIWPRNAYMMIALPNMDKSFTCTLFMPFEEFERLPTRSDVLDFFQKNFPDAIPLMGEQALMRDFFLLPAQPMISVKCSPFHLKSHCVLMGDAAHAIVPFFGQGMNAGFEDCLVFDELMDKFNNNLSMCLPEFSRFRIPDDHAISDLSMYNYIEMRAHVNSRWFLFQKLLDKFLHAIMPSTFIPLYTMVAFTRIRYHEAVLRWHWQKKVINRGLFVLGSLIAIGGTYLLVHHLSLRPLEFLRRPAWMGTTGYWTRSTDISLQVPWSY

Consider `NC(=O)[C@@H]1CCCN1C(=O)c1cc(-c2cccc(Cl)c2)ncn1` [(S)-1-[6-(3-Chloro-phenyl)-pyrimidine-4-carbonyl]-pyrrolidine-2-carboxylic acid amide], for which the inhibition at 10 µM was found to be 91.1%.
Same read-out and setting: in the case of `O=C(c1cc(-c2cccc(Cl)c2)ncn1)N1CCC1` [Azetidin-1-yl-[6-(3-chloro-phenyl)-pyrimidin-4-yl]-methanone] it was 100%; in that of `COc1ccc(S(=O)(=O)Nc2cc(-c3ccc(Cl)c(Cl)c3)ncn2)cc1OC` [N-[6-(3,4-Dichloro-phenyl)-pyrimidin-4-yl]-3,4-dimethoxy-benzenesulfonamide], 85%; in that of `CS(=O)(=O)Nc1cc(-c2ccc(Cl)c(Cl)c2)ncn1` [N-[6-(3,4-Dichloro-phenyl)-pyrimidin-4-yl]-methanesulfonamide], 51.2%.
Consider `CS(=O)(=O)NC(=O)c1cc(-c2cccc(Cl)c2)ncn1` [N-[6-(3-Chloro-phenyl)-pyrimidine-4-carbonyl]-methanesulfonamide], for which the inhibition at 10 µM is 99.5%.
As for `O=S(=O)(O)c1cc(-c2cccc(Cl)c2)ncn1` [Sodium; 6-(3-chloro-phenyl)-pyrimidine-4-sulfonate], the inhibition at 10 µM was found to be 97.1%.
Still for that read-out and setting: in the case of `O=C(c1cc(-c2ccc(Cl)c(Cl)c2)ccn1)N1CCc2ccccc21` [[4-(3,4-Dichloro-phenyl)-pyridin-2-yl]-(2,3-dihydro-indol-1-yl)-methanone] it was 96.6%; in that of `O=C(c1cc(-c2cc(Cl)cc(Cl)c2)ccn1)N1CCc2ccccc21` [[4-(3,5-Dichloro-phenyl)-pyridin-2-yl]-(2,3-dihydro-indol-1-yl)-methanone], 54.5%.
On the same count and under the same terms, in the case of `O=C(c1cc(-c2cccc(Cl)c2)ccn1)N1CCc2ccccc21` [[4-(3-Chloro-phenyl)-pyridin-2-yl]-(2,3-dihydro-indol-1-yl)-methanone] it was 100%; in that of `O=C(c1cc(-c2ccc(Cl)c(Cl)c2)ncn1)N1Cc2ccccc2C1` [[6-(3,4-Dichloro-phenyl)-pyrimidin-4-yl]-(1,3-dihydro-isoindol-2-yl)-methanone], 63.5%.
In the case of `O=C(c1cc(-c2ccc(Cl)c(Cl)c2)ncn1)N1CC2(CC2)c2ccccc21` [[6-(3,4-Dichloro-phenyl)-pyrimidin-4-yl]-(1′,2′-dihydro-spiro[cyclopropane-1,3′-[3H]indol]-1′)-methanone], the “INH.Mouse @ 10 μM” value was found to be 100.0.
Regarding `O=C(c1cc(-c2ccc(Cl)c(Cl)c2)ncn1)N1CCc2ccccc21` [[6-(3,4-Dichloro-phenyl)-pyrimidin-4-yl]-(2,3-dihydro-indol-1-yl)-methanone], the inhibition at 10 µM was 100%.
Same read-out and setting: in the case of `O=C(c1cc(-c2ccc(Cl)c(Cl)c2)ncn1)N1CCCc2ccccc21` [[6-(3,4-Dichloro-phenyl)-pyrimidin-4-yl]-(3,4-dihydro-2H-quinolin-1-yl)-methanone] it was 92.6%; in that of `O=C(c1cc(-c2ccc(Cl)c(Cl)c2)ncn1)N1CCc2cc(F)ccc21` [[6-(3,4-Dichloro-phenyl)-pyrimidin-4-yl]-(5-fluoro-2,3-dihydro-indol-1-yl)-methanone], 100%; in that of `O=C(c1cc(-c2cc(Cl)cc(Cl)c2)ncn1)N1CCc2ccccc21` [[6-(3,5-Dichloro-phenyl)-pyrimidin-4-yl]-(2,3-dihydro-indol-1-yl)-methanone], 98.3%.
The same measure, in the same setting: in the case of `O=C(c1cc(-c2cccc(Cl)c2)ncn1)N1Cc2ccccc2C1` [[6-(3-Chloro-phenyl)-pyrimidin-4-yl]-(1,3-dihydro-isoindol-2-yl)-methanone] it was 100%; in that of `O=C(c1cc(-c2cccc(Cl)c2)ncn1)N1CCc2ccccc21` [[6-(3-Chloro-phenyl)-pyrimidin-4-yl]-(2,3-dihydro-indol-1-yl)-methanone], 100%; in that of `O=C(c1cc(-c2cccc(Cl)c2)ncn1)N1CCc2cnccc21` [[6-(3-Chloro-phenyl)-pyrimidin-4-yl]-(2,3-dihydro-pyrrolo[3,2-c]pyridin-1-yl)-methanone], 100%.
The same measure, in the same setting: in the case of `CC1Cc2ccccc2N1C(=O)c1cc(-c2cccc(Cl)c2)ncn1` (stereo not shown) [[6-(3-Chloro-phenyl)-pyrimidin-4-yl]-(2-methyl-2,3-dihydro-indol-1-yl)-methanone] it was 76.9%.
As for `O=C(c1cc(-c2cccc(Cl)c2)ncn1)N1CCCc2ccccc21` [[6-(3-Chloro-phenyl)-pyrimidin-4-yl]-(3,4-dihydro-2H-quinolin-1-yl)-methanone], the inhibition at 10 µM came out at 100%.
Still for that read-out and setting: in the case of `O=C(c1cc(-c2cccc(Cl)c2)ncn1)N1CCC(O)CC1` [[6-(3-Chloro-phenyl)-pyrimidin-4-yl]-(4-hydroxy-piperidin-1-yl)-methanone] it was 100%.
For the compound `CN1CCN(C(=O)c2cc(-c3cccc(Cl)c3)ncn2)CC1` [[6-(3-Chloro-phenyl)-pyrimidin-4-yl]-(4-methyl-piperazin-1-yl)-methanone], the inhibition at 10 µM turned out to be 64.3%.
Still for that read-out and setting: in the case of `CC1CCN(C(=O)c2cc(-c3cccc(Cl)c3)ncn2)CC1` [[6-(3-Chloro-phenyl)-pyrimidin-4-yl]-(4-methyl-piperidin-1-yl)-methanone] it was 88.2%.
The same measure, in the same setting: in the case of `O=C(c1cc(-c2cccc(Cl)c2)ncn1)N1CCc2cc(F)ccc21` [[6-(3-Chloro-phenyl)-pyrimidin-4-yl]-(5-fluoro-2,3-dihydro-indol-1-yl)-methanone] it was 100%; in that of `O=C(c1cc(-c2cccc(Cl)c2)ncn1)N1CC[C@@H](O)C1` [[6-(3-Chloro-phenyl)-pyrimidin-4-yl]-((R)-3-hydroxy-pyrrolidin-1-yl)-methanone], 83.9%.
The same measure, in the same setting: in the case of `O=C(c1cc(-c2cccc(Cl)c2)ncn1)N1CC[C@H](O)C1` [[6-(3-Chloro-phenyl)-pyrimidin-4-yl]-((S)-3-hydroxy-pyrrolidin-1-yl)-methanone] it was 84.9%; in that of `O=C(c1cc(-c2cccc(Cl)c2)ncn1)N1CCOCC1` [[6-(3-Chloro-phenyl)-pyrimidin-4-yl]-morpholin-4-yl-methanone], 100%; in that of `O=C(c1cc(-c2cccc(Cl)c2)ncn1)N1CCCC1` [[6-(3-Chloro-phenyl)-pyrimidin-4-yl]-pyrrolidin-1-yl-methanone], 90.5%.
